Measurements taken from publication PMC9090415, “Discovery of small molecule inhibitors of Plasmodium falciparum apicoplast DNA polymerase” (Journal of Enzyme Inhibition and Medicinal Chemistry, 2022).

Biological target: P. falciparum apicoplast DNA polymerase (Pf-apPOL) (Plasmodium falciparum, UniProt Q8ILY1)
Test: Fluorescence-based high-throughput DNA polymerase assay (molecular beacon), primary screen and dose-response
Assay type: biochemical
Conditions: for DNA Pol: 90 min, 10 µM; for IC50: supplemental file 2, sheet IC50 nontoxic compounds, Pf-apPOL
Procedure, shortened: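 Single-point screening used 10 µM compound with 20 nM polymerase, 20 nM hairpin substrate and 6 µM dNTPs for 90 min at 25 °C. Confirmatory titrations (2.5–80 µM) followed fluorescence at three times, and IC50 was derived from a fit including a cooperativity term n.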

[1] = primary screen value of the 186 hits, unit not given

Chain of P. falciparum apicoplast DNA polymerase (Pf-apPOL) (Q8ILY1 entry or part of it): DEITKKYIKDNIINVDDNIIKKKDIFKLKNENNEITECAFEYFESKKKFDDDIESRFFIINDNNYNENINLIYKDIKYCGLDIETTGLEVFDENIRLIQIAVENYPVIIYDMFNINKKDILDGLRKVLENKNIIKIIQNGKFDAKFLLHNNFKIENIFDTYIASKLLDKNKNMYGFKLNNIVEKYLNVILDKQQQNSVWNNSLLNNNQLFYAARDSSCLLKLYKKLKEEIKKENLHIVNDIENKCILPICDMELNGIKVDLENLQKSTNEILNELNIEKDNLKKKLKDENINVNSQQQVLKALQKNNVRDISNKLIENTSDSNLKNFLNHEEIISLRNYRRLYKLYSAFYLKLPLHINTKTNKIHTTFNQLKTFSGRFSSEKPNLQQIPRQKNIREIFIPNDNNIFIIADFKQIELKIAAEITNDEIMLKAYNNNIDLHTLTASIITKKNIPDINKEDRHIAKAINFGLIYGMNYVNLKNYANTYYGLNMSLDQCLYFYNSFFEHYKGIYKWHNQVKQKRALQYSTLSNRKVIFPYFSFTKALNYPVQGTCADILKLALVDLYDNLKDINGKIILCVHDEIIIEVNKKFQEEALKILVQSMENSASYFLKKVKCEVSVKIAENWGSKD

SMILES: COc1ccccc1C1CC(=O)Oc2cc3c(cc21)OCO3 (centres unmarked) [KU0104502]
- DNA Pol ('DNA Pol' of the 186 hits list (screen value)): 42
- % inhibition Apo pol 10' (DRC-1, conc 2.5): 16.5835%
- % inhibition Apo pol 10' (DRC-1, conc 5): 35.5684%
- % inhibition Apo pol 10' (DRC-1, conc 10): 61.1126%
- % inhibition Apo pol 10' (DRC-1, conc 20): 76.0203%
- % inhibition Apo pol 10' (DRC-1, conc 40): 89.9974%
- % inhibition Apo pol 10' (DRC-1, conc 80): 93.475%
- % inhibition Apol 90' (DRC-1, 90', conc 2.5): 2.531%
- % inhibition Apol 90' (DRC-1, 90', conc 5): 13.2862%
- % inhibition Apol 90' (DRC-1, 90', conc 10): 34.6587%
- % inhibition Apol 90' (DRC-1, 90', conc 20): 54.2638%
- % inhibition Apol 90' (DRC-1, 90', conc 40): 81.0345%
- % inhibition Apol 90' (DRC-1, 90', conc 80): 93.8969%
- % inhibition apPOL 180' (DRC-1, 180', conc 2.5): -4.384%
- % inhibition apPOL 180' (DRC-1, 180', conc 5): 1.7201%
- % inhibition apPOL 180' (DRC-1, 180', conc 10): 18.8078%
- % inhibition apPOL 180' (DRC-1, 180', conc 20): 38.0211%
- % inhibition apPOL 180' (DRC-1, 180', conc 40): 74.6782%
- % inhibition apPOL 180' (DRC-1, 180', conc 80): 93.9211%
- % inhibition Apo pol 5' (DRC-2, conc 2.5): 10%
- % inhibition Apo pol 5' (DRC-2, conc 5): 34%
- % inhibition Apo pol 5' (DRC-2, conc 10): 50%
- % inhibition Apo pol 5' (DRC-2, conc 20): 59%
- % inhibition Apo pol 5' (DRC-2, conc 40): 65%
- % inhibition Apo pol 5' (DRC-2, conc 80): 66%
- % inhibition Apol 40' (DRC-2, 40', conc 2.5): 4.3%
- % inhibition Apol 40' (DRC-2, 40', conc 5): 27%
- % inhibition Apol 40' (DRC-2, 40', conc 10): 47%
- % inhibition Apol 40' (DRC-2, 40', conc 20): 62%
- % inhibition Apol 40' (DRC-2, 40', conc 40): 75%
- % inhibition Apol 40' (DRC-2, 40', conc 80): 80%
- % inhibition ApPOL 90' (DRC-2, 90', conc 2.5): 1.26%
- % inhibition ApPOL 90' (DRC-2, 90', conc 5): 23%
- % inhibition ApPOL 90' (DRC-2, 90', conc 10): 42%
- % inhibition ApPOL 90' (DRC-2, 90', conc 20): 60%
- % inhibition ApPOL 90' (DRC-2, 90', conc 40): 77%
- % inhibition ApPOL 90' (DRC-2, 90', conc 80): 82%
- % inhibition apPOL 180' (DRC-2, 180', conc 2.5): -2.17%
- % inhibition apPOL 180' (DRC-2, 180', conc 5): 12%
- % inhibition apPOL 180' (DRC-2, 180', conc 10): 31%
- % inhibition apPOL 180' (DRC-2, 180', conc 20): 53%
- % inhibition apPOL 180' (DRC-2, 180', conc 40): 78%
- % inhibition apPOL 180' (DRC-2, 180', conc 80): 85%
- DNA Pol (primary screen value, "DNA Pol"): 42

SMILES: Cc1ccc(NC(=O)Cn2ccc3c(=O)[nH]ccc32)cc1F [Molecule 48]
- IC50: 15.3 µM

SMILES: Cc1ccc(CCNC(=O)c2cnn3c(O)c(Cc4ccccc4F)c(C)nc23)cc1 [KU0097142]
- % inhibition Apo pol 10' (DRC-1, concentration 2.5): -13.7377%
- % inhibition Apo pol 10' (DRC-1, concentration 5): -17.1874%
- % inhibition Apo pol 10' (DRC-1, concentration 10): -18.6102%
- % inhibition Apo pol 10' (DRC-1, concentration 20): 32.4745%
- % inhibition Apo pol 10' (DRC-1, concentration 40): 80.8586%
- % inhibition Apo pol 10' (DRC-1, concentration 80): 88.0629%
- % inhibition Apol 90' (DRC-1, 90', concentration 2.5): -9.394%
- % inhibition Apol 90' (DRC-1, 90', concentration 5): -5.811%
- % inhibition Apol 90' (DRC-1, 90', concentration 10): -11.7224%
- % inhibition Apol 90' (DRC-1, 90', concentration 20): 36.3215%
- % inhibition Apol 90' (DRC-1, 90', concentration 40): 78.277%
- % inhibition Apol 90' (DRC-1, 90', concentration 80): 85.9002%
- % inhibition apPOL 180' (DRC-1, 180', concentration 2.5): -10.2215%
- % inhibition apPOL 180' (DRC-1, 180', concentration 5): -8.372%
- % inhibition apPOL 180' (DRC-1, 180', concentration 10): -12.5375%
- % inhibition apPOL 180' (DRC-1, 180', concentration 20): 23.0268%
- % inhibition apPOL 180' (DRC-1, 180', concentration 40): 70.309%
- % inhibition apPOL 180' (DRC-1, 180', concentration 80): 81.7781%
- % inhibition Apol 40' (DRC-2, 40', concentration 5 (unit not given)): 17%
- % inhibition Apol 40' (DRC-2, 40', concentration 40 (unit not given)): 67%
- % inhibition ApPOL 90' (DRC-2, 90', concentration 5 (unit not given)): 17%
- % inhibition ApPOL 90' (DRC-2, 90', concentration 40 (unit not given)): 67%
- % inhibition apPOL 180' (DRC-2, 180', concentration 40 (unit not given)): 62%
- % inhibition Apo pol 5' (DRC-2, concentration 2.5): -3.79%
- % inhibition Apo pol 5' (DRC-2, concentration 5): 11%
- % inhibition Apo pol 5' (DRC-2, concentration 10): 15%
- % inhibition Apo pol 5' (DRC-2, concentration 20): 45%
- % inhibition Apo pol 5' (DRC-2, concentration 40): 57%
- % inhibition Apo pol 5' (DRC-2, concentration 80): 62%
- % inhibition Apo pol 5' (DRC-2, concentration 80 (unit not given)): 62%
- % inhibition Apol 40' (DRC-2, 40', concentration 2.5): -0.896%
- % inhibition Apol 40' (DRC-2, 40', concentration 5): 17%
- % inhibition Apol 40' (DRC-2, 40', concentration 10): 21%
- % inhibition Apol 40' (DRC-2, 40', concentration 20): 54%
- % inhibition Apol 40' (DRC-2, 40', concentration 40): 67%
- % inhibition Apol 40' (DRC-2, 40', concentration 80): 71%
- % inhibition ApPOL 90' (DRC-2, 90', concentration 2.5): -1.26%
- % inhibition ApPOL 90' (DRC-2, 90', concentration 5): 17%
- % inhibition ApPOL 90' (DRC-2, 90', concentration 10): 19%
- % inhibition ApPOL 90' (DRC-2, 90', concentration 20): 52%
- % inhibition ApPOL 90' (DRC-2, 90', concentration 40): 67%
- % inhibition ApPOL 90' (DRC-2, 90', concentration 80): 72%
- % inhibition apPOL 180' (DRC-2, 180', concentration 2.5): -2.35%
- % inhibition apPOL 180' (DRC-2, 180', concentration 5): 12%
- % inhibition apPOL 180' (DRC-2, 180', concentration 10): 13%
- % inhibition apPOL 180' (DRC-2, 180', concentration 20): 43%
- % inhibition apPOL 180' (DRC-2, 180', concentration 40): 62%
- % inhibition apPOL 180' (DRC-2, 180', concentration 80): 69%
- DNA Pol [1]: 48
- DNA Pol (primary screen value, head "DNA Pol", unit not given): 48

SMILES: Cc1ccsc1Cn1c(C)ccc1C [Molecule 70]
- IC50: 31.6 µM

SMILES: O=C(c1c[nH]c2ncccc12)N1CCCC1 [Molecule 63]
- IC50: 21.4 µM

SMILES: COc1ccc(NC(=O)Cn2ccc3c(=O)[nH]ccc32)cc1Cl [Molecule 10, COc1ccc(cc1Cl)NC(=O)Cn1ccc2c1cc[nH]c2=O]
- % inhibition Apo pol 10' (DRC-1, concentration 2.5): 12.1098%
- % inhibition Apo pol 10' (DRC-1, concentration 5): 41.0198%
- % inhibition Apo pol 10' (DRC-1, concentration 10): 64.5653%
- % inhibition Apo pol 10' (DRC-1, concentration 20): 78.092%
- % inhibition Apo pol 10' (DRC-1, concentration 40): 83.862%
- % inhibition Apo pol 10' (DRC-1, concentration 80): 74.6013%
- % inhibition Apol 90' (DRC-1, 90', concentration 2.5): 1.658%
- % inhibition Apol 90' (DRC-1, 90', concentration 5): 26.4531%
- % inhibition Apol 90' (DRC-1, 90', concentration 10): 48.8726%
- % inhibition Apol 90' (DRC-1, 90', concentration 20): 69.5261%
- % inhibition Apol 90' (DRC-1, 90', concentration 40): 86.3942%
- % inhibition Apol 90' (DRC-1, 90', concentration 80): 83.0123%
- % inhibition apPOL 180' (DRC-1, 180', concentration 2.5): -4.328%
- % inhibition apPOL 180' (DRC-1, 180', concentration 5): 12.6648%
- % inhibition apPOL 180' (DRC-1, 180', concentration 10): 30.7094%
- % inhibition apPOL 180' (DRC-1, 180', concentration 20): 56.2759%
- % inhibition apPOL 180' (DRC-1, 180', concentration 40): 85.5137%
- % inhibition apPOL 180' (DRC-1, 180', concentration 80): 84.9384%
- % inhibition Apo pol 5' (DRC-2, concentration 2.5): 22%
- % inhibition Apo pol 5' (DRC-2, concentration 5): 37%
- % inhibition Apo pol 5' (DRC-2, concentration 10): 48%
- % inhibition Apo pol 5' (DRC-2, concentration 20): 44%
- % inhibition Apo pol 5' (DRC-2, concentration 40): 37%
- % inhibition Apo pol 5' (DRC-2, concentration 80): 19%
- % inhibition Apol 40' (DRC-2, 40', concentration 2.5): 23%
- % inhibition Apol 40' (DRC-2, 40', concentration 5): 47%
- % inhibition Apol 40' (DRC-2, 40', concentration 10): 64%
- % inhibition Apol 40' (DRC-2, 40', concentration 20): 65%
- % inhibition Apol 40' (DRC-2, 40', concentration 40): 62%
- % inhibition Apol 40' (DRC-2, 40', concentration 80): 51%
- % inhibition ApPOL 90' (DRC-2, 90', concentration 2.5): 20%
- % inhibition ApPOL 90' (DRC-2, 90', concentration 5): 45%
- % inhibition ApPOL 90' (DRC-2, 90', concentration 10): 66%
- % inhibition ApPOL 90' (DRC-2, 90', concentration 20): 69%
- % inhibition ApPOL 90' (DRC-2, 90', concentration 40): 68%
- % inhibition ApPOL 90' (DRC-2, 90', concentration 80): 59%
- % inhibition apPOL 180' (DRC-2, 180', concentration 2.5): 8%
- % inhibition apPOL 180' (DRC-2, 180', concentration 5): 34%
- % inhibition apPOL 180' (DRC-2, 180', concentration 10): 62%
- % inhibition apPOL 180' (DRC-2, 180', concentration 20): 70%
- % inhibition apPOL 180' (DRC-2, 180', concentration 40): 73%
- % inhibition apPOL 180' (DRC-2, 180', concentration 80): 67%
- % inhibition Apo pol 5' (conc. 5, DRC-2): 37%
- % inhibition apPOL 180' (conc. 10, 180', DRC-2): 62%
- % inhibition Apo pol 5' (conc. 40, DRC-2): 37%
- % inhibition Apol 40' (conc. 40, 40', DRC-2): 62%
- DNA Pol (primary screen value by plate and well): 78
- DNA Pol [1]: 78

SMILES: O=c1cc(-c2ccccc2)oc2c(O)c(O)ccc12 [Molecule 84]
- IC50: 32.2 µM
